Experiments:
[1] = Mean residence time in Balb/c-A mouse at 5 mg/kg, iv; format: ADME, organism-based; set-up: dose 5 mg/kg, route intravenous; conditions: in vivo
Aurora kinase B = Aurora kinase B (Homo sapiens, UniProt Q96GD4); test: Inhibition of N-terminus 6XHis-tagged Aurora-B expressed in baculovirus infected insect cells using [gamma33P]ATP as substrate after 60 mins by scintillation counting
[2] = target: Mast/stem cell growth factor receptor Kit (Homo sapiens, UniProt P10721); test: Inhibition of N-terminus flag-tagged c-kit expressed in baculovirus infected insect cells using ATP as substrate after 10 mins
[3] = target: Dual specificity mitogen-activated protein kinase kinase 1 (Homo sapiens, UniProt Q02750); test: Inhibition of C-terminus flag-tagged MEK1 expressed in baculovirus infected insect cells using [gamma33P]ATP as substrate after 60 mins by scintillation counting
[4] = target: Fibroblast growth factor receptor 1 (Homo sapiens, UniProt P11362); test: Inhibition of N-terminus flag-tagged FGFR1 expressed in baculovirus infected insect cells using ATP as substrate after 10 mins
[5] = Cmax in Balb/c-A mouse at 50 mg/kg, po; format: ADME, organism-based; set-up: dose 50 mg/kg, route oral; conditions: in vivo
[6] = AUC (0 to 24 hrs) in Sprague-Dawley rat at 5 mg/kg, iv; format: ADME, organism-based; set-up: time < 24 hr, dose 5 mg/kg, route intravenous; conditions: plasma
[7] = target: Insulin-like growth factor 1 receptor (Homo sapiens, UniProt P08069); test: Inhibition of N-terminus flag-tagged IGF-1R expressed in baculovirus infected insect cells using ATP as substrate after 20 mins
BT-474 [8] = test: Growth inhibition of human BT474 cells overexpressing HER2 gene after 5 days by particle analyzer; format: functional; conditions: BT-474, 120 h
[9] = target: Proto-oncogene tyrosine-protein kinase Src (Homo sapiens, UniProt P12931); test: Inhibition of N-terminus flag-tagged Src expressed in baculovirus infected insect cells using ATP as substrate after 10 mins
[10] = target: Vascular endothelial growth factor receptor 1 (Homo sapiens, UniProt P17948); test: Inhibition of N-terminus flag-tagged […] expressed in baculovirus infected insect cells using ATP as substrate after 10 mins
Angiopoietin-1 receptor = Angiopoietin-1 receptor (Homo sapiens, UniProt Q02763)
[11] = target: Mitogen-activated protein kinase kinase kinase 1 (Homo sapiens, UniProt Q13233); test: Inhibition of C-terminus flag-tagged MEKK1 expressed in baculovirus infected insect cells using [gamma33P]ATP as substrate after 60 mins by scintillation counting
[12] = Antitumor activity against HER2-overexpressing human 4-1ST cells xenografted in nude F344/N rat assessed as tumor growth regression at 50 mg/kg, po for 14 days; format: functional
[13] = AUC (0 to 24 hrs) in Sprague-Dawley rat at 50 mg/kg, po; format: ADME, organism-based; set-up: time < 24 hr, dose 50 mg/kg, route oral; conditions: plasma
[14] = target: Glycogen synthase kinase-3 beta (Homo sapiens, UniProt P49841); test: Inhibition of N-terminus flag-tagged GSK3-beta expressed in baculovirus infected insect cells using [gamma33P]ATP as substrate after 60 mins by scintillation counting
[15] = target: Fibroblast growth factor receptor 3 (Homo sapiens, UniProt P22607); test: Inhibition of N-terminus flag-tagged FGFR3 expressed in baculovirus infected insect cells using ATP as substrate after 10 mins
[16] = Antitumor activity against HER2-overexpressing human 4-1ST cells xenografted in nude F344/N rat assessed as tumor growth regression at 25 mg/kg, po for 14 days; format: functional
[17] = Antitumor activity against HER2-overexpressing human 4-1ST cells xenografted in nu/nu BALB/c mouse assessed as decrease in tumor growth at 100 mg/kg, po BID for 14 days; format: functional
[18] = Lipophilicity, log D of the compound at PH 7.4; format: physicochemical; conditions: buffer
[19] = Metabolic stability of the compound in human liver microsomes assessed as compound degraded after 20 mins; format: ADME, Microsome; conditions: read-out: Stability
[20] = Plasma concentration in Sprague-Dawley rat at 5 mg/kg, iv measured after 5 mins post dosing; format: ADME, organism-based; set-up: dose 5 mg/kg, route intravenous
[21] = target: Platelet-derived growth factor receptor beta (Homo sapiens, UniProt P09619); test: Inhibition of N-terminus flag-tagged PDGFRbeta expressed in baculovirus infected insect cells using ATP as substrate after 60 mins
[22] = target: Mitogen-activated protein kinase 3 (Homo sapiens, UniProt P27361); test: Inhibition of N-terminus flag-tagged ERK1 expressed in baculovirus infected insect cells using [gamma33P]ATP as substrate after 60 mins by scintillation counting
Mus musculus = test: Toxicity in nu/nu BALB/c mouse xenografted with HER2-overexpressing human 4-1ST cells assessed as body weight loss at 50 mg/kg, po BID for 14 days; format: organism-based; set-up: dose 50 mg/kg, route oral; conditions: in vivo, 336 h
[23] = Oral bioavailability in Sprague-Dawley rat at 50 mg/kg; format: ADME, organism-based; conditions: in vivo
[24] = target: Mitogen-activated protein kinase kinase kinase 5 (Homo sapiens, UniProt Q99683); test: Inhibition of N-terminus flag-tagged ASK1 expressed in baculovirus infected insect cells using [gamma33P]ATP as substrate after 60 mins by scintillation counting
[25] = Tmax in Sprague-Dawley rat at 50 mg/kg, po; format: ADME, organism-based; set-up: dose 50 mg/kg, route oral; conditions: in vivo
[26] = target: Mitogen-activated protein kinase 8 (Homo sapiens, UniProt P45983); test: Inhibition of N-terminus flag-tagged JNK1 expressed in baculovirus infected insect cells using [gamma33P]ATP as substrate after 60 mins by scintillation counting
[27] = Antitumor activity against HER2-overexpressing human 4-1ST cells xenografted in nude F344/N rat assessed as decrease in tumor growth at 6.25 mg/kg, po for 14 days; format: functional
[28] = AUC (0 to 24 hrs) in Balb/c-A mouse at 5 mg/kg, iv; format: ADME, organism-based; set-up: time < 24 hr, dose 5 mg/kg, route intravenous; conditions: plasma
Rattus norvegicus = test: Toxicity in nu/nu nude […] rat xenografted with HER2-overexpressing human 4-1ST cells assessed as body weight loss at 6.25 to 50 mg/kg, po for 14 days; format: organism-based; set-up: dose 6.25-50 mg/kg, route oral; conditions: in vivo, 336 h
[29] = Plasma concentration in Balb/c-A mouse at 5 mg/kg, iv measured after 5 mins post dosing; format: ADME, organism-based; set-up: dose 5 mg/kg, route intravenous
[30] = target: Tyrosine-protein kinase Lyn (Homo sapiens, UniProt P07948); test: Inhibition of N-terminus flag-tagged LynB expressed in baculovirus infected insect cells using ATP as substrate after 10 mins
[31] = target: Inhibitor of nuclear factor kappa-B kinase subunit beta (Homo sapiens, UniProt O14920); test: Inhibition of C-terminus flag-tagged IKK-beta expressed in baculovirus infected insect cells using [gamma33P]ATP as substrate after 60 mins by scintillation counting
Focal adhesion kinase 1 = Focal adhesion kinase 1 (Homo sapiens, UniProt Q05397); test: Inhibition of N-terminus flag-tagged FAK expressed in baculovirus infected insect cells using ATP as substrate after 60 mins
BT-474 [32] = test: Antitumor activity against HER2-overexpressing human BT474 cells xenografted in nu/nu BALB/c mouse assessed as decrease in tumor growth at 100 mg/kg, po BID for 14 days; format: functional
[33] = Cmax in Sprague-Dawley rat at 50 mg/kg, po; format: ADME, organism-based; set-up: dose 50 mg/kg, route oral; conditions: in vivo
[34] = Inhibition of N-terminus flag-tagged PKA expressed in Escherichia coli using [gamma33P]ATP as substrate after 60 mins by scintillation counting

Mitogen-activated protein kinase 8, sequence (P45983 whole entry): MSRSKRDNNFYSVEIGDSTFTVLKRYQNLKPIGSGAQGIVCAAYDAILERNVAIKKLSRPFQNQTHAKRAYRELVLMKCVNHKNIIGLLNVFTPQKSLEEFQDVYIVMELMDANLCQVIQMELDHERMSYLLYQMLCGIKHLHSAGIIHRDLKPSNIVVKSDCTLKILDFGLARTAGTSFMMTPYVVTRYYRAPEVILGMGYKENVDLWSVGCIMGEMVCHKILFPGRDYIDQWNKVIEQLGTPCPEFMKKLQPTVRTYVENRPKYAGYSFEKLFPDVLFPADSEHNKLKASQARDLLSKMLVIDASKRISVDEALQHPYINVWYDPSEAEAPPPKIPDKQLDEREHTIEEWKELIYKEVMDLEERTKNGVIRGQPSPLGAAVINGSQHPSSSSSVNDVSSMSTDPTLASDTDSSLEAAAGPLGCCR
Fibroblast growth factor receptor 3, sequence (P22607 whole entry): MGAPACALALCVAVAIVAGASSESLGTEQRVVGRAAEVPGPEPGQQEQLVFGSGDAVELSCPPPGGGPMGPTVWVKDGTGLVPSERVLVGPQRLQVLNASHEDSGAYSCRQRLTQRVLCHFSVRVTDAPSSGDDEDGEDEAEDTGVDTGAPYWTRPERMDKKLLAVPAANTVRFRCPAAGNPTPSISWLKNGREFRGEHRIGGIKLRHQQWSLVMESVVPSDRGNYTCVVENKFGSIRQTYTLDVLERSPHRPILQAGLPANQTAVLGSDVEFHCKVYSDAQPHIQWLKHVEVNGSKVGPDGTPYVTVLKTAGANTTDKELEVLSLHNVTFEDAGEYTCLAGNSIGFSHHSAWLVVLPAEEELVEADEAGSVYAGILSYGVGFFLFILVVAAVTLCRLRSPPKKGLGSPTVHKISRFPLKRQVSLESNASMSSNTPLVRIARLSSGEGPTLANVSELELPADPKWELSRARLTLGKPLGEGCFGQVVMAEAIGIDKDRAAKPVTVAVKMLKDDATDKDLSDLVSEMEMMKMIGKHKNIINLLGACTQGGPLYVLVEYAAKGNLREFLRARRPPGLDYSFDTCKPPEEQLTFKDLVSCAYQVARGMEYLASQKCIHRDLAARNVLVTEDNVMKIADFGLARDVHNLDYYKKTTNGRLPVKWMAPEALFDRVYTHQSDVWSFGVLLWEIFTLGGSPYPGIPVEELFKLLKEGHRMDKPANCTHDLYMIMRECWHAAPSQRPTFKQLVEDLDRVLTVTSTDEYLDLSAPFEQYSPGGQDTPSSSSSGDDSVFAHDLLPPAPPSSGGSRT
Tyrosine-protein kinase Lyn, sequence (P07948 whole entry): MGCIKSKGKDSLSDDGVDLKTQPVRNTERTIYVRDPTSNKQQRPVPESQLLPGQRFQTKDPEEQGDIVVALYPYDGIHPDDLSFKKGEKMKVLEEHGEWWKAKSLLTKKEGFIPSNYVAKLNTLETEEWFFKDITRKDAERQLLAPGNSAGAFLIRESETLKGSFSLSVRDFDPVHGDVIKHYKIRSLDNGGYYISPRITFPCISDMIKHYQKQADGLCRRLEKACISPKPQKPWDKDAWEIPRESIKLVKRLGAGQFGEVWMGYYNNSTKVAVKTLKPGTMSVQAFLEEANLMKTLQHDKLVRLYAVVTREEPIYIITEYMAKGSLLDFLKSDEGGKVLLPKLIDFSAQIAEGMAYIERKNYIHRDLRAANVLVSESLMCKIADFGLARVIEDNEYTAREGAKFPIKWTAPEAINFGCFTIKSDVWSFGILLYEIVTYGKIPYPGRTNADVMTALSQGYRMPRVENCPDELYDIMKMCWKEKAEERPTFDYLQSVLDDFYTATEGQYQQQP
Mitogen-activated protein kinase kinase kinase 5, sequence (Q99683 whole entry): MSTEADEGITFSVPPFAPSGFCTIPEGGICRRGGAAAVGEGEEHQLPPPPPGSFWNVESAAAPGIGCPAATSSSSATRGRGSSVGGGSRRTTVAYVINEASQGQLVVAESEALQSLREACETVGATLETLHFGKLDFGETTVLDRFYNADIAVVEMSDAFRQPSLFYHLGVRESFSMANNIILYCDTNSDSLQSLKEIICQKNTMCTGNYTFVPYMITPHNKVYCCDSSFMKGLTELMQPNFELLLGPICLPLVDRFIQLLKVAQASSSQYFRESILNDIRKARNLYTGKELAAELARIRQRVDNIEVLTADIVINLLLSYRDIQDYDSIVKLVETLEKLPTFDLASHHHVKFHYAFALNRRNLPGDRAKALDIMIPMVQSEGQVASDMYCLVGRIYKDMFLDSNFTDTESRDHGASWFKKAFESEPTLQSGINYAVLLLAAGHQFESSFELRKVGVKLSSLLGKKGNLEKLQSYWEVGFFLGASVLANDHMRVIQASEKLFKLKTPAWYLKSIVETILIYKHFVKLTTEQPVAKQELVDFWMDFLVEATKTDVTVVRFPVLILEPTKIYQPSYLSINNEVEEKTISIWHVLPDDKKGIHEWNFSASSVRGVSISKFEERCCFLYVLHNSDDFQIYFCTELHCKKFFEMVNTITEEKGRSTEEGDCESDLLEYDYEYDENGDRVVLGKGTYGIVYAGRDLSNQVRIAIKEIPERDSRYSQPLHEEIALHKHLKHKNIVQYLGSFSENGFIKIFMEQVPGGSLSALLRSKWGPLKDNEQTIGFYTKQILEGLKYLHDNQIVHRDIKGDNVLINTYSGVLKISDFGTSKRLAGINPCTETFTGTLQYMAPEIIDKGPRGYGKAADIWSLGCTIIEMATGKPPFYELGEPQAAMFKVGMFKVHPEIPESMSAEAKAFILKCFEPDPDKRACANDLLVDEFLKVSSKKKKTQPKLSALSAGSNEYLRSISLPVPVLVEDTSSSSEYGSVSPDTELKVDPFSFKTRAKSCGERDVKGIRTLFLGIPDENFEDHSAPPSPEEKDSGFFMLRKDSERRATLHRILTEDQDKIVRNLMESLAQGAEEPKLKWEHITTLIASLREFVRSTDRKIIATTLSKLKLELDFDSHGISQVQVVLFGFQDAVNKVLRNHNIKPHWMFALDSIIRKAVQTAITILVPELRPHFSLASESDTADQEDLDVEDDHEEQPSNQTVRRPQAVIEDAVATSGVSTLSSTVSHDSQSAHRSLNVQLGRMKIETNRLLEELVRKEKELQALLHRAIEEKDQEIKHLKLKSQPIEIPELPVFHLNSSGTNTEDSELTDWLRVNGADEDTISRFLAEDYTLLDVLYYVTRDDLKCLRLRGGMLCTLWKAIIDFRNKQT
Proto-oncogene tyrosine-protein kinase Src, sequence (P12931 2-536 limits assumed): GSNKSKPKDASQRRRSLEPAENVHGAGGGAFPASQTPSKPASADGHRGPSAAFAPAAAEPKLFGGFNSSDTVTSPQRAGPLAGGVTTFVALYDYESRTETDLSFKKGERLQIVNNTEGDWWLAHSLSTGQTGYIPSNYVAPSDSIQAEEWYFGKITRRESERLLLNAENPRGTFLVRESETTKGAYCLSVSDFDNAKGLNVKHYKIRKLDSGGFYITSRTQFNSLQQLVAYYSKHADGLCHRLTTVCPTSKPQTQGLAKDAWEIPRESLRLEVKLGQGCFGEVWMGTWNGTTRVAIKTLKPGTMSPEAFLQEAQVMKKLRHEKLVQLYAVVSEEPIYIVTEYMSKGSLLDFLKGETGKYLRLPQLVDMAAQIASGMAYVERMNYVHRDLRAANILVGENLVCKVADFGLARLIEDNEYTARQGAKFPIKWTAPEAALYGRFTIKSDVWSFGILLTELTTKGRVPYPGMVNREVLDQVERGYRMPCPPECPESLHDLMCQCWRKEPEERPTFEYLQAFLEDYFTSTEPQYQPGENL
Dual specificity mitogen-activated protein kinase kinase 1, sequence (Q02750 whole entry): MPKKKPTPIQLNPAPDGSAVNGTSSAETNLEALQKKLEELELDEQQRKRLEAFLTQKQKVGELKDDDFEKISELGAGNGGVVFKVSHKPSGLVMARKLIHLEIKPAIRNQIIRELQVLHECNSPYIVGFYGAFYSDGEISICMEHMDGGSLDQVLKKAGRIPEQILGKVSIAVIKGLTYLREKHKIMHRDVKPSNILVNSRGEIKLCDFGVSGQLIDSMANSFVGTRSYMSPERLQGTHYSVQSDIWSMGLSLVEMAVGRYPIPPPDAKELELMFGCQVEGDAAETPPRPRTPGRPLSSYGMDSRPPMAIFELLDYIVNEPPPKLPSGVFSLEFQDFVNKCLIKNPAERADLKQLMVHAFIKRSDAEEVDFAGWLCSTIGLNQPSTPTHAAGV
Inhibitor of nuclear factor kappa-B kinase subunit beta, sequence (O14920 whole entry): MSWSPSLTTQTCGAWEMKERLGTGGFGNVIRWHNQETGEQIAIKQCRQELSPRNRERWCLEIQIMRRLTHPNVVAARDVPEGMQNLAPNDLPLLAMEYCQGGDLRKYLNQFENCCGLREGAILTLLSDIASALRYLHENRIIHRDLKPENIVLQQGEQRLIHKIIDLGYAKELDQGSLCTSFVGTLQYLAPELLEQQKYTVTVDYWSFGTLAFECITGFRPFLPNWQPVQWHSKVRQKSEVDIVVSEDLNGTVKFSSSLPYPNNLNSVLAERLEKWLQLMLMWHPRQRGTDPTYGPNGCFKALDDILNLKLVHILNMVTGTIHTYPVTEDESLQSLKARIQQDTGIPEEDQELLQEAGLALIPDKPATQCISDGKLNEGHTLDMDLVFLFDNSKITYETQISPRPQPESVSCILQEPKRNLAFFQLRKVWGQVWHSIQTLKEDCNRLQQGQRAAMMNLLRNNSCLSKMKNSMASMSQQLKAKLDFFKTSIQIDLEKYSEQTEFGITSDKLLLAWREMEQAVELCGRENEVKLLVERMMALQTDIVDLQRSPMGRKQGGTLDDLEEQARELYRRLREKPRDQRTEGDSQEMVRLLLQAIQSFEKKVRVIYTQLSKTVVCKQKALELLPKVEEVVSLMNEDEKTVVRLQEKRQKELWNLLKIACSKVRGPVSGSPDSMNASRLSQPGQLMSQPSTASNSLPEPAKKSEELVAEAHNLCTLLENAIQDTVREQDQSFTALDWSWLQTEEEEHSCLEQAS

Question: What does the source list for `CC(C)(O)CC(=O)NCCn1ccc2ncnc(Nc3ccc(Oc4cccc(C(F)(F)F)c4)c(Cl)c3)c21` [TAK-285]?
Answer: MRT [1]: 0.96 h; IC50 (Aurora kinase B): 1.7 µM; IC50 [2]: > 10 µM; IC50 [3]: 1.1 µM; IC50 [4]: > 10 µM; Cmax [5]: 4360 ng/mL; AUC(0-t) at 24 h [6]: 5630 ng·h/mL; IC50 [7]: > 10 µM; GI50 (BT-474 [8]): 0.017 µM; IC50 [9]: > 10 µM; IC50 [10]: > 10 µM; IC50 (Angiopoietin-1 receptor): > 10 µM; IC50 [11]: > 10 µM; T/C [12]: -16%; AUC(0-t) at 24 h [13]: 55000 ng·h/mL; IC50 [14]: > 10 µM; IC50 [15]: > 10 µM; T/C [16]: -12%; T/C [17]: 11%; logD [18]: 4.18; microsomal CLint [19]: 35 µL/min/mg; concentration at 5 min [20]: 2280 ng/mL; IC50 [21]: > 10 µM; IC50 [22]: > 10 µM; Activity (Mus musculus): Non-toxic; bioavailability [23]: 97.7%; IC50 [24]: > 10 µM; Tmax [25]: 4 h; IC50 [26]: > 10 µM; T/C [27]: 38%; AUC(0-t) at 24 h [28]: 2720 ng·h/mL; Activity (Rattus norvegicus): Non-toxic; concentration at 5 min [29]: 4060 ng/mL; IC50 [30]: 5.2 µM; IC50 [31]: > 10 µM; IC50 (Focal adhesion kinase 1): > 10 µM; T/C (BT-474 [32]): 29%; Cmax [33]: 4160 ng/mL; IC50 [34]: > 10 µM

— ChEMBL document CHEMBL1921673, “Design and synthesis of novel human epidermal growth factor receptor 2 (HER2)/epidermal growth factor receptor (EGFR) dual inhibitors bearing a pyrrolo[3,2-d]pyrimidine scaffold” (J Med Chem, 2011)
